Experimental data published in ChEMBL document CHEMBL4811216, “Chemotherapy for human schistosomiasis: how far have we come? What's new? Where do we go from here?” (RSC Med Chem, 2020).

How the values were obtained:
Schistosoma mansoni [1] = test: Antischistosomal activity against adult Schistosoma mansoni BH infected in Balb/C mouse assessed as reduction in worm burden at 40 mg/kg, po administered at 45 days post infection and measured at 15 days post treatment relative to control; assay type: functional; parameters: scale not given: the % may be the effect or the level left; conditions: time 15 day
Schistosoma mansoni [2] = test: Antischistosomal activity against adult Schistosoma mansoni BH assessed as tegument damage at 150 to 200 ug/ml incubated for 120 hrs measured every 24 hrs by light microscopy relative to control; assay type: functional; conditions: dose 150-200 µg/ml, at 150 to 200 µg/mL
Schistosoma mansoni [3] = test: Antischistosomal activity against adult Schistosoma mansoni BH assessed as worm death at 150 to 200 ug/ml incubated for 120 hrs measured every 24 hrs by light microscopy relative to control; assay type: functional; conditions: dose 150-200 µg/ml, at 150 to 200 µg/mL
Schistosoma mansoni [4] = test: Antischistosomal activity against juvenile Schistosoma mansoni BH infected in Balb/C mouse assessed as reduction in worm burden at 40 mg/kg, po administered at 21 days post infection and measured at 15 days post treatment relative to control; assay type: functional; parameters: scale not given: the % may be the effect or the level left; conditions: time 15 day
Schistosoma mansoni [5] = test: Antischistosomal activity against adult Schistosoma mansoni BH assessed as reduction in motor activity at 150 to 200 ug/ml incubated for 120 hrs measured every 24 hrs by light microscopy relative to control; assay type: functional; parameters: scale not given: the % may be the effect or the level left; conditions: dose 150-200 µg/ml, at 150 to 200 µg/mL
Schistosoma mansoni [6] = test: Antischistosomal activity against adult Schistosoma mansoni BH infected in Balb/C mouse assessed as reduction in number of eggs at 40 mg/kg, po administered at 45 days post infection and measured at 15 days post treatment relative to control; assay type: functional; parameters: scale not given: the % may be the effect or the level left; conditions: time 15 day
Schistosoma mansoni [7] = test: Antischistosomal activity against Schistosoma mansoni Liberian NTS at 10 uM measured after 24 hrs relative to control; assay type: functional
Schistosoma mansoni [8] = test: Antischistosomal activity against Schistosoma mansoni assessed as tegument damage at <=100 uM measured within 72 hrs relative to control; assay type: functional; conditions: dose microM <=100
Schistosoma mansoni [9] = test: Antischistosomal activity against Schistosoma mansoni assessed as reduction in worm motor activity at <=100 uM measured within 72 hrs relative to control; assay type: functional; parameters: scale not given: the % may be the effect or the level left; conditions: dose microM <=100
Schistosoma mansoni [10] = test: Antischistosomal activity against Schistosoma mansoni incubated for 24 hrs by MTT assay; assay type: functional, organism-based
Schistosoma mansoni [11] = test: Antischistosomal activity against Schistosoma mansoni assessed as worm death at <= 100 uM measured within 72 hrs relative to control; assay type: functional; conditions: dose microM <=100
Schistosoma mansoni [12] = test: Antischistosomal activity against Schistosoma mansoni miracidia assessed as worm death incubated for 1 to 2 hrs by microscopic method relative to control; assay type: functional; conditions: time 1-2 hrs
Schistosoma mansoni [13] = test: Antischistosomal activity against Schistosoma mansoni cercariae assessed as worm death incubated for 2 hrs by microscopic method relative to control; assay type: functional

Cn1cnc(C[C@H]2CCC(=O)[C@@H]2[C@H](O)c2ccccc2)c1
Activity (Schistosoma mansoni [1]): 70%
Activity (Schistosoma mansoni [2]): 100%
mortality (Schistosoma mansoni [3]): 100%
Activity (Schistosoma mansoni [4]): 50.2%
Activity (Schistosoma mansoni [5]): 100%
Activity (Schistosoma mansoni [6]): 80%
Activity (Schistosoma mansoni [7]): 100%

C/C=C/c1cc(OC)c2c(c1)C(C)C(c1ccc(O)c(OC)c1)O2 (stereo not drawn) [DEHRODIISOEUGENOL]
Activity (Schistosoma mansoni [8]): 25%
Activity (Schistosoma mansoni [9]): 100%
IC50 (Schistosoma mansoni [10]): 53.5 µM
mortality (Schistosoma mansoni [11]): 100%

CC1=CC(=O)CC(C)(C)C1(O)/C=C/C(C)O[C@@H]1O[C@H](COC(=O)c2cc(O)c(O)c(O)c2)[C@@H](O)[C@H](O)[C@H]1O (stereo partly drawn)
mortality (Schistosoma mansoni [12]): 99.7%
mortality (Schistosoma mansoni [13]): 41%
